ChEMBL document CHEMBL1201862, “PubChem BioAssay data set” (2004)
Activity calls are given as the source filed them.

Assays:
[1] = target: T1, Polyadenylate-binding protein 1 (Homo sapiens, UniProt P11940); experiment: MLLE binding blockers, Cy5 peptide tracer – biochemical, fluorescence polarization, Cy5-PAM2 peptide, secondary, miRNA deadenylation inhibitor project, dose response (AID 602260); assay type: functional; details: read-out: IC50_Mean
Bcl-2-like protein 10 = target: T2, Bcl-2-like protein 10 (Homo sapiens, UniProt Q9HD36); experiment: Bcl-B/TR3 peptide binding disruption – biochemical, fluorescence polarization, FITC-TR3 peptide, selectivity assay for Bfl-1 inhibitor project, primary screen (AID 748);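 also: fluorescence polarization from a fluorescein-labelled TR3 peptide binding purified Bcl-B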
T2 sequence (Q9HD36 whole entry): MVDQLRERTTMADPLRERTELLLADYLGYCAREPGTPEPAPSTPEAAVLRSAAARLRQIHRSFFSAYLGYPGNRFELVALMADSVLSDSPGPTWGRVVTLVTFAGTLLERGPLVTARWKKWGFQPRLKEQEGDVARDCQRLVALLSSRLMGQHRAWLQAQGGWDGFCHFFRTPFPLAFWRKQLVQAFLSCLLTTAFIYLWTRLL

[2] = target: T1, Polyadenylate-binding protein 1; experiment: MLLE domain peptide-binding blockers, IC50 – biochemical, fluorescence polarization, FITC-PAM2 peptide, dose response (AID 602259); assay type: functional; details: read-out: IC50_Mean
Estrogen receptor beta = Estrogen receptor beta (Homo sapiens, UniProt Q92731); experiment: blockers of SRC-3 recruitment to ERβ – biochemical, ELISA, streptavidin-HRP readout, orthogonal assay, confirmation (AID 1060)
[3] = target: Glyceraldehyde-3-phosphate dehydrogenase (Homo sapiens, UniProt P04406)
[4] = target: T3, Alkaline phosphatase, tissue-nonspecific isozyme (Homo sapiens, UniProt P05186); experiment: potency against alkaline phosphatase TNAP – biochemical, luminescent, dose response, SAR follow-up (AID 1056)
T3 sequence (P05186 whole entry): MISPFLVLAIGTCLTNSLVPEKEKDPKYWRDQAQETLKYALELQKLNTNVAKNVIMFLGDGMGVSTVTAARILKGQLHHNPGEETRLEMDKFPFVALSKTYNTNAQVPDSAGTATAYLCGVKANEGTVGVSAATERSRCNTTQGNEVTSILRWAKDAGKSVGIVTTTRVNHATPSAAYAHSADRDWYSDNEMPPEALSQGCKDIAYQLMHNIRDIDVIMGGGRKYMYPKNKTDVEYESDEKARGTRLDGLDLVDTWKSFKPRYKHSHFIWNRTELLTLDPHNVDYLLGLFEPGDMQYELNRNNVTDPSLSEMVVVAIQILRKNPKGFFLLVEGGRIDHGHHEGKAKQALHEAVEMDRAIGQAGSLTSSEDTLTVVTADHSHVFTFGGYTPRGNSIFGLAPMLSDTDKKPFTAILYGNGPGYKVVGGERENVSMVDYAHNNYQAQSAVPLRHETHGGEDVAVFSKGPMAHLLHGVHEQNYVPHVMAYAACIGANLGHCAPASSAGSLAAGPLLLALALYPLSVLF

Caspase-3 = target: T4, Caspase-3 (Homo sapiens, UniProt P42574); assay type: functional;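 also: Dose-response selectivity test against caspase-3 for candidate inhibitors of sentrin-specific proteases (SENPs)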
T4 sequence (P42574 whole entry): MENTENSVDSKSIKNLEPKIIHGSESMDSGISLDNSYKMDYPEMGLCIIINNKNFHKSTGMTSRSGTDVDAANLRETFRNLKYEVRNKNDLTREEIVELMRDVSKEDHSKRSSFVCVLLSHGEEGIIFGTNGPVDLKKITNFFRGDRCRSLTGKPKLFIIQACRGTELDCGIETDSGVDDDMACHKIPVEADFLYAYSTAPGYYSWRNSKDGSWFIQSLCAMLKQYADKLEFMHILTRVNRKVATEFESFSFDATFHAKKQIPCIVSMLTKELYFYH

[5] = target: T5, Sentrin-specific protease 7 (Homo sapiens, UniProt Q9BQF6); assay type: functional;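 also: Luminescence-based dose-response confirmation of ultra-high-throughput screening hits, measuring inhibition of SENP7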
T5 sequence (Q9BQF6 whole entry): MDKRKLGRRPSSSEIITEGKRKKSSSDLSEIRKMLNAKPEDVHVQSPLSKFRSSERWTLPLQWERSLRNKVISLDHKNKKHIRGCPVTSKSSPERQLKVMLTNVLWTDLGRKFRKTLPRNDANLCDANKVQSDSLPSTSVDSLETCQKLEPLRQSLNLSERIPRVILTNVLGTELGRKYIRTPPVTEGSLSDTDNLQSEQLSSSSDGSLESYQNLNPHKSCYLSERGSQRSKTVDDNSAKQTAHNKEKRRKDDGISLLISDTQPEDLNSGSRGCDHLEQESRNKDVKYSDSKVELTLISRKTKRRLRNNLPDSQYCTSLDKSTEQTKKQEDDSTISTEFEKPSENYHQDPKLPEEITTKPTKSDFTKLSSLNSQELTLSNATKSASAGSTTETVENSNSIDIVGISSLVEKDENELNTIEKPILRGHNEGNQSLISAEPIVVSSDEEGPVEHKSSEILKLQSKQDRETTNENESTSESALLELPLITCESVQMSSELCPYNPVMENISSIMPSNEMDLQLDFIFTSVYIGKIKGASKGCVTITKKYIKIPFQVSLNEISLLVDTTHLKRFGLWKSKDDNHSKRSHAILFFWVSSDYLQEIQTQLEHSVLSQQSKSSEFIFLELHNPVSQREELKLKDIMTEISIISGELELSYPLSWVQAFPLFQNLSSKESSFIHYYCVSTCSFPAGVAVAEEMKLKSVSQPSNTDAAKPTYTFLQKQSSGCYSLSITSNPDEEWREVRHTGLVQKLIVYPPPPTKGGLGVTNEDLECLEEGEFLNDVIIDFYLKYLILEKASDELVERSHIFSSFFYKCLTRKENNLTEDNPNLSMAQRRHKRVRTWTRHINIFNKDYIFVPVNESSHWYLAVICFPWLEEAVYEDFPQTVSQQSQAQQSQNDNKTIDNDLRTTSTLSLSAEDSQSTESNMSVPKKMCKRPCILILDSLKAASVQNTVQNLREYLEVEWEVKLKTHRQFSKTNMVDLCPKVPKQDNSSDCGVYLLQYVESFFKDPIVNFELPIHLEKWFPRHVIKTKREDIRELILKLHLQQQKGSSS

[6] = target: T6, Sentrin-specific protease 8 (Homo sapiens, UniProt Q96LD8); assay type: functional;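 also: luminescence read-out of SENP8 inhibition, dose-response confirmation following an ultra-high-throughput screen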
T6 sequence (Q96LD8 whole entry): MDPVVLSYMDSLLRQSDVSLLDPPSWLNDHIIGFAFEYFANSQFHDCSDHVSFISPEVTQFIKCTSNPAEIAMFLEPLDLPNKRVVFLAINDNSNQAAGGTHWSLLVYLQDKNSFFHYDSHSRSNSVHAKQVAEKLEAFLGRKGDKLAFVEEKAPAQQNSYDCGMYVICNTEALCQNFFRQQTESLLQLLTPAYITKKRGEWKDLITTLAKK

[7] = target: T7, Voltage-gated N-type calcium channel alpha-1B subunit/Amyloid beta A4 precursor protein-binding family A member 1 (Homo sapiens, UniProt Q00975+Q02410); assay type: protein assay
[8] = target: T8, Sentrin-specific protease 6 (Homo sapiens, UniProt Q9GZR1); assay type: functional;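 also: Luminescence-based dose-response confirmatory assay of SENP6 inhibition, following up an ultra-high-throughput screen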
T8 sequence (Q9GZR1 whole entry): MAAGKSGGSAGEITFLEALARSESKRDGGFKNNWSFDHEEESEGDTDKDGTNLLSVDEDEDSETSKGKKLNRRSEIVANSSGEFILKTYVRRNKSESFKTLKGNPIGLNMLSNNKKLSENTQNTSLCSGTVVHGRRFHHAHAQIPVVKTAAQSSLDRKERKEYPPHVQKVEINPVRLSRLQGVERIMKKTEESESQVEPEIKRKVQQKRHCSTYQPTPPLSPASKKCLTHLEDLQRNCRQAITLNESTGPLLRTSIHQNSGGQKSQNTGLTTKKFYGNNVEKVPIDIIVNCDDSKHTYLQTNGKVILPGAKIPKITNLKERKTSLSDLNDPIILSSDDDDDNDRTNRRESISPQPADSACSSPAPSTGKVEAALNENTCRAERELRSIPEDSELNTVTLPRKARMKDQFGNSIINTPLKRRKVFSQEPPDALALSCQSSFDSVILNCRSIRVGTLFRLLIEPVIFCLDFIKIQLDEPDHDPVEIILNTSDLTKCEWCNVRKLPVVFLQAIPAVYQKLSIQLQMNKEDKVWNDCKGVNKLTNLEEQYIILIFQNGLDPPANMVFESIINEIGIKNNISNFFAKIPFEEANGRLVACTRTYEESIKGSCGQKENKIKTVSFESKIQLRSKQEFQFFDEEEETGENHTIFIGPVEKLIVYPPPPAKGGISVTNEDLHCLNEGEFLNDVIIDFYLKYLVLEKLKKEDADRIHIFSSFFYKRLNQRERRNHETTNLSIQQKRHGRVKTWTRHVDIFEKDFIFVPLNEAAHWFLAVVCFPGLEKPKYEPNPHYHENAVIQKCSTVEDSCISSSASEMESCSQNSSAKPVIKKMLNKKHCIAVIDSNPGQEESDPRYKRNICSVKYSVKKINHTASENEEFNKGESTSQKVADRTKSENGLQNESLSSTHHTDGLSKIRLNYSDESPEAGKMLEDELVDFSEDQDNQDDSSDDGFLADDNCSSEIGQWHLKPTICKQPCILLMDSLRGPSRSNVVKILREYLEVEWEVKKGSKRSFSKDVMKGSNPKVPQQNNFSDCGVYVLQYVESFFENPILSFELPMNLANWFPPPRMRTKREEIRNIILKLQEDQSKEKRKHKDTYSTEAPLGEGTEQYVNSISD

[9] = target: T7, Voltage-gated N-type calcium channel alpha-1B subunit/Amyloid beta A4 precursor protein-binding family A member 1; assay type: protein assay; remark: listed apart in the source
[10] = target: Cyclin-dependent kinase 5/CDK5 activator 1 (Homo sapiens, UniProt Q00535); experiment: blockade of human CDK5 activity – biochemical, cherry-picked samples, set 2, dose response (AID 504545)
[11] = target: T9, Small ubiquitin-related modifier 1 (Homo sapiens, UniProt P63165); experiment: SUMO1 protein interaction blockers, potency – biochemical, fluorescence polarization, uHTS hits, dose response (AID 624382); assay type: functional; details: read-out: IC50_Mean
[12] = target: T9, Small ubiquitin-related modifier 1; experiment: SUMO1 protein-protein binding blockers, potency – biochemical, FRET, dose response (AID 624383); assay type: functional; details: read-out: IC50_Mean
Ion channel NompC = Ion channel NompC (Danio rerio, UniProt Q7T1G6); experiment: Dose response cell-based high-throughput screening assay for agonists of the transient receptor potential channel N1 (TRPN1). [Related pubchem assays (depositor defined):AID1424, AID1448]; assay type: functional
HEK293 [13] = experiment: NOD2 signaling inhibitors in MDP-stimulated cells, cell-based, uHTS, luminescence (AID 2001); assay type: functional; details: Homo sapiens
Mucolipin-3 = Mucolipin-3 (Homo sapiens, UniProt Q8TDD5); experiment: Fluorescence counterscreen assay for […] agonists: dose response cell-based high-throughput screening assay to identify agonists of the transient receptor potential channel ML3 (TRPML3). [Related pubchem assays: 1424, 1448 ]; assay type: functional
HEK293 [14] = experiment: cells; assay type: functional, cell-based; details: Homo sapiens
HEK293 [15] = experiment: inhibition of NOD1-driven NF-kB reporter – cell-based, luminescence, uHTS, primary screen (AID 1578); assay type: functional; details: Homo sapiens
cells = assay type: functional
[16] = THP-1 cell cytotoxicity, dose response, cytotoxicity control for non-replicating M. tuberculosis project (AID 489025); assay type: functional
Protein skinhead-1 = target: T10, Protein skinhead-1 (Caenorhabditis elegans, UniProt P34707); assay type: functional
T10 sequence (P34707 whole entry): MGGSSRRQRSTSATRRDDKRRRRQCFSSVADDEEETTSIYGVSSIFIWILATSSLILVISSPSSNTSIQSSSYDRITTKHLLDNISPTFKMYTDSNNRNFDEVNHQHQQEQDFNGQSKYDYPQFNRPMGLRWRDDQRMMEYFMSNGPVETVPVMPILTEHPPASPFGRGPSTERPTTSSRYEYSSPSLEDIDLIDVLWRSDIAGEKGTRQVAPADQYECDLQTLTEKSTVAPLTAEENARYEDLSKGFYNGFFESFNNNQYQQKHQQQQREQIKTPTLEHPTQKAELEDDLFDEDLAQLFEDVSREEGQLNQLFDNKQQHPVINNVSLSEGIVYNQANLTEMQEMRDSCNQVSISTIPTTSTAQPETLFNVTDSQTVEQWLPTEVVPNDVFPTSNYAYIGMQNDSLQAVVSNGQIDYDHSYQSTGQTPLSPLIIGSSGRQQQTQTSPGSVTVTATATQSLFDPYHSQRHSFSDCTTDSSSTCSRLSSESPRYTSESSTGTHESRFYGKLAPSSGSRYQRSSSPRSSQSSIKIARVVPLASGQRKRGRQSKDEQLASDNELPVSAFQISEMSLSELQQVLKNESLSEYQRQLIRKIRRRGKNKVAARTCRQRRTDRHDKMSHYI

[17] = Vero E6 cell cytotoxicity, dose response, cytotoxicity control for non-replicating M. tuberculosis project, secondary assay (AID 492998); assay type: functional, VeroE6; details: Vero C1008

Sequence of Mucolipin-3 (Q8TDD5 whole entry): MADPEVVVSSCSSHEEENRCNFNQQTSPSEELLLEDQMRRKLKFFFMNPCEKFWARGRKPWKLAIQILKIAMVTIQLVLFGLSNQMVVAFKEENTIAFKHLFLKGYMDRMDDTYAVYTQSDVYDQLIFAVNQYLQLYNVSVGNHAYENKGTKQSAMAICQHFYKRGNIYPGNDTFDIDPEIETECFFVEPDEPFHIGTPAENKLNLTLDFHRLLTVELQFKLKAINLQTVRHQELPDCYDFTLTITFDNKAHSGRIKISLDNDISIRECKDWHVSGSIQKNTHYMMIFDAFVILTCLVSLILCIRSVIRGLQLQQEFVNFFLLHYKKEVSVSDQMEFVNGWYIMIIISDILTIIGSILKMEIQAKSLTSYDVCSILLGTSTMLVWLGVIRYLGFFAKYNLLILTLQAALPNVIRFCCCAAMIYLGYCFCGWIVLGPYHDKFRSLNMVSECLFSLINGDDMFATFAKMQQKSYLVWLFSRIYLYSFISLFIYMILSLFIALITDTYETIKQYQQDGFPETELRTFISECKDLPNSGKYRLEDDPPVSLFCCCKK
T1 sequence (P11940 whole entry): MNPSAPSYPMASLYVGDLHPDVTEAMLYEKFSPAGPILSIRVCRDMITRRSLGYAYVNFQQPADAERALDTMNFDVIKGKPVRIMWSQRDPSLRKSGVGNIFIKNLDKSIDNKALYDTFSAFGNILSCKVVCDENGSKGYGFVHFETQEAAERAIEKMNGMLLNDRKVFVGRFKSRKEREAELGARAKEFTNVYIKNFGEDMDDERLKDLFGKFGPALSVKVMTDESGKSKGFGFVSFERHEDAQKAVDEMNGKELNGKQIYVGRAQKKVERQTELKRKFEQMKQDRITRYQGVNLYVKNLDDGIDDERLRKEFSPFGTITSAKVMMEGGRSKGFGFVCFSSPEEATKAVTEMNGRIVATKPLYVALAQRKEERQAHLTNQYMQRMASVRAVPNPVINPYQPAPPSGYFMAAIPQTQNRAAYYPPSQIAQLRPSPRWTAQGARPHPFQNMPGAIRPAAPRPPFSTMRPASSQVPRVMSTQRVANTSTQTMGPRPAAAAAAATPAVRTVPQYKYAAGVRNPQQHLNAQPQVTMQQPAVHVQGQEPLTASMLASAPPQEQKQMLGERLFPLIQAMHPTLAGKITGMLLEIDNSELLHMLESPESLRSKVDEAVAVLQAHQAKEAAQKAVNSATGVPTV
Sequence of Ion channel NompC (Q7T1G6 whole entry): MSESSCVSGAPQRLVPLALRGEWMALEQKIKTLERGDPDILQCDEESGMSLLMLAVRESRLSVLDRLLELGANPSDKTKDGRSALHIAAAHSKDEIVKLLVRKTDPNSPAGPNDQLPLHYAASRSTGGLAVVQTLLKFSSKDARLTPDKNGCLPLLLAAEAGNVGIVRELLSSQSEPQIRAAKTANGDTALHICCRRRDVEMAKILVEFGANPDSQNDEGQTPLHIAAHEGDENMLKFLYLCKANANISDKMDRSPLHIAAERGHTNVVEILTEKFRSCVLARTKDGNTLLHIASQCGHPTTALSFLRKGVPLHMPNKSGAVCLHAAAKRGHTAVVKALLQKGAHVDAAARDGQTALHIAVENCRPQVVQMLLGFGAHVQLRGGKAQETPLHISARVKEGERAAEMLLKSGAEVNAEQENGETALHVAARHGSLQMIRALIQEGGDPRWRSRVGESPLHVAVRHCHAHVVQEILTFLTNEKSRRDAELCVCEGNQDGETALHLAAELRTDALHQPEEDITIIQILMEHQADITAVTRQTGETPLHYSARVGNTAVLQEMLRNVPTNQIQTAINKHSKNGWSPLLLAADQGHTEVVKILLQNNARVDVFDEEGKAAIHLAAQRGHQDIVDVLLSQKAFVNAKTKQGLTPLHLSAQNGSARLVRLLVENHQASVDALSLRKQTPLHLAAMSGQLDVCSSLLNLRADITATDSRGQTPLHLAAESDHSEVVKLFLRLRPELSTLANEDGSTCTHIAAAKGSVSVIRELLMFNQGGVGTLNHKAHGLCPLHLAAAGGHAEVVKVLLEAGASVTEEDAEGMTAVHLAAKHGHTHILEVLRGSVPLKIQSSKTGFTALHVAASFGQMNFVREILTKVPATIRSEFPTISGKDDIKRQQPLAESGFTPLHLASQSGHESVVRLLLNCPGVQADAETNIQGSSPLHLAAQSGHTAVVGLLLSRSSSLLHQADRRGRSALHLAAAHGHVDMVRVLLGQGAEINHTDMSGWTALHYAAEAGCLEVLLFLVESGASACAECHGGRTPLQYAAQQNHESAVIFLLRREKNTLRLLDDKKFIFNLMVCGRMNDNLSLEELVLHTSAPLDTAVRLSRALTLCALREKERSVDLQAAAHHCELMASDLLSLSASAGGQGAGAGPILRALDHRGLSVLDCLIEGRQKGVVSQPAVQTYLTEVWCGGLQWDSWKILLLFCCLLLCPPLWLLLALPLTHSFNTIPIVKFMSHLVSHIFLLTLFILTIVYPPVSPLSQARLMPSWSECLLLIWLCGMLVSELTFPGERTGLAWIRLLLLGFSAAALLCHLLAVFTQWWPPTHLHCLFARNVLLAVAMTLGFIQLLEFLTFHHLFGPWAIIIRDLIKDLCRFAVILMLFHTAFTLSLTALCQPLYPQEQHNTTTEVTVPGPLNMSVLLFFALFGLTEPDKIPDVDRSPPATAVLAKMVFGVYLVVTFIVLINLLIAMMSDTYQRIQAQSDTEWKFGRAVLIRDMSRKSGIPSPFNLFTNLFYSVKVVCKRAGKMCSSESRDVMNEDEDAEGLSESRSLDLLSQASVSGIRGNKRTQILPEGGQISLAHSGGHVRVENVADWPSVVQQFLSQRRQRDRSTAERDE
T9 sequence (P63165 whole entry): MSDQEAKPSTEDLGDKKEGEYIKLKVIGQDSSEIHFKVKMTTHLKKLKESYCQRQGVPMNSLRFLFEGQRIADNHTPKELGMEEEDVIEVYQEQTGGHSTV
Sequence of Cyclin-dependent kinase 5/CDK5 activator 1 (Q00535 whole entry): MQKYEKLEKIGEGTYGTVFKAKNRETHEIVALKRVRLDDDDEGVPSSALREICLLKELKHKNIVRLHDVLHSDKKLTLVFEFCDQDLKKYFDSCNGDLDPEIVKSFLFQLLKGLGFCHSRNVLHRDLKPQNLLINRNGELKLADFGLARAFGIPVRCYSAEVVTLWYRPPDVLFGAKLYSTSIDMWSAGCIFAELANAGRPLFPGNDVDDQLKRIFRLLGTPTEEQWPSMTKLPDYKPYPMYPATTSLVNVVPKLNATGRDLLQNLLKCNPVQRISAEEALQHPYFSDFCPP
Sequence of Cyclin-dependent kinase 5/CDK5 activator 1 (Q15078 whole entry, further chain): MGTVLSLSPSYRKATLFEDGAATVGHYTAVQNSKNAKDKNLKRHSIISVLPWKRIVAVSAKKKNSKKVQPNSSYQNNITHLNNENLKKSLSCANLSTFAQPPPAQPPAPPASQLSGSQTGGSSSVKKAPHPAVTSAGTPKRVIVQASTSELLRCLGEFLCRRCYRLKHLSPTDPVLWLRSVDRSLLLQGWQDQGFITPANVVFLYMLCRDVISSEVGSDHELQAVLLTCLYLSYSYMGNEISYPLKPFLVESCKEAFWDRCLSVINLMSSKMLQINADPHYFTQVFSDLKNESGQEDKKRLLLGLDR
Sequence of Glyceraldehyde-3-phosphate dehydrogenase (P04406 whole entry): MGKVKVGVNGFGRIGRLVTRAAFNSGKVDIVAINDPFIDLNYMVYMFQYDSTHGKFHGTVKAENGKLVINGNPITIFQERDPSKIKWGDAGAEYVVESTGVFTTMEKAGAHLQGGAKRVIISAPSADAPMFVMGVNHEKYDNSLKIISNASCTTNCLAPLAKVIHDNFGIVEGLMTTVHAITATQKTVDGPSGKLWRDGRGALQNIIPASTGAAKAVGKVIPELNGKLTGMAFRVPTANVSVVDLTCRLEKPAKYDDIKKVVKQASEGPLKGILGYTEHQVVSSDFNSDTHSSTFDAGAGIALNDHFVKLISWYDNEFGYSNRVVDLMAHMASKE
Sequence of Estrogen receptor beta (Q92731 whole entry): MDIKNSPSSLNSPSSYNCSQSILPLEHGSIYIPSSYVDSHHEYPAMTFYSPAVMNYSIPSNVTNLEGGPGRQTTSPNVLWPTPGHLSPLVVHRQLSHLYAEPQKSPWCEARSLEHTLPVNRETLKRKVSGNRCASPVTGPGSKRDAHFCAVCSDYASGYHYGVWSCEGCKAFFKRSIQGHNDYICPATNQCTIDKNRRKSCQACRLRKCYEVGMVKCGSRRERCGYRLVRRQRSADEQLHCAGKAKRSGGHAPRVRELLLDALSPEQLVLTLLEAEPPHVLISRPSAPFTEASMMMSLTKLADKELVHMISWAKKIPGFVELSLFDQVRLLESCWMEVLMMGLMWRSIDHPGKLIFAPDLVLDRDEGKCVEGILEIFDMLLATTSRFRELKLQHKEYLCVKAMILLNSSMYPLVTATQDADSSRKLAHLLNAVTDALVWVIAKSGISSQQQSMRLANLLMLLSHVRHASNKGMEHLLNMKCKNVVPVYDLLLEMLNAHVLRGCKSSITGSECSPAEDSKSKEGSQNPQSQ

For `Cc1cc(C)c2cc3c(ccn3C3OC[C@H](O)[C@H](O)[C@H]3O)cc2n1` (stereo partly specified), the IC50 [1] was > 66 µM (inactive), the IC50 (Bcl-2-like protein 10) was > 6.25 µM (inactive) and the IC50 [2] was 57.6 µM (inactive). The IC50 (Estrogen receptor beta) was < 0.023 µM (not active).

In the case of `COc1ccc(S(=O)(=O)Nc2ccncn2)cc1OC`, the IC50 [3] is reported as > 100 µM (not active) and the IC50 [4] is reported as > 100 µM (inactive).

For `O=c1[nH]c(/C=C/c2ccccc2Cl)nc2ccccc12`, the IC50 (Caspase-3) was 1.61 µM (active), the IC50 [5] was 1.64 µM (active) and the IC50 [6] was > 100 µM (inactive). For the same molecule, the IC50 [7] was > 56.8 µM (not active), the IC50 [8] was 1.4 µM (active) and the IC50 [9] was > 50 µM (inactive).

In the case of `CC(C)[C@H](CO)Nc1nc(Nc2ccc(Cl)c(C(=O)O)c2)c2ncn(C(C)C)c2n1`, the AC50 [10] is reported as 9.44 µM (active), the IC50 [11] is reported as > 66.6 µM (inactive) and the IC50 [12] is reported as 21.4 µM (inactive).

With `Cc1ccc(NC(=O)Nc2nnc(-c3ccncc3)s2)cc1` the EC50 (Ion channel NompC) was > 29.9 µM (inactive), the IC50 (HEK293 [13]) was 5.87 µM (active) and the EC50 (Mucolipin-3) was > 29.9 µM (not active). For the same molecule, the IC50 (HEK293 [14]) was > 20 µM (inactive) and the EC50 (HEK293 [15]) was 3.38 µM (active).

In the case of `C#CCSc1nnc(-c2cccc3ccccc23)o1`, the IC50 (cells) is reported as 9.32 µM (active), the CC50 [16] is reported as 20.6 µM (active) and the IC50 (Protein skinhead-1) is reported as 10.2 µM (active). The CC50 [17] was 15.7 µM (active).

With `COC(=O)C(/C=N/OCc1ccc([N+](=O)[O-])cc1)NC(=O)c1cccc(Cl)c1` (stereo unspecified) the EC50 (Ion channel NompC) was > 29.9 µM (inactive) and the EC50 (Mucolipin-3) was > 29.9 µM (not active).
